{"source": "patent US20100047841A1", "about": "“SYNTHESIS OF DESACETOXYTUBULYSIN H AND ANALOGS THEREOF” (University of Pittsburgh-of the Commonwealth System of …, priority 2007, published 2010)", "key": {"[1]": {"tested_on": "T98G human glioblastoma cell line", "experiment": "Antiproliferative assay (MTS), GI50 in T98G cells", "assay_type": "cell-based", "conditions": "for GI50: Homo sapiens, T98G", "text": "General methods are known for determining the effect of compounds on proliferation of cells. See, e.g., Zhu et al., J. Med. Chem., 2006, 49, 2063-2076. Cells can be selected by one of skill in the art and can be maintained as exponentially growing cultures in a suitable medium (e.g., RPMI 1640 medium) with adjuvents, including FBS, penicillin, and glutamine, provided at levels known to those skilled in this field. For human cancer cells, e.g., human glioblastoma cell line T98G, the cells can be trypsinized and washed prior to formation of a cell suspension in appropriate buffer and plating of the cell suspension. Typical microtiter plate amounts can be 500-2000 cells/well. The cells can be allowed to attach and grow for a defined time period (e.g., 36 hours, 72 hours, 96 hours, or other defined period) before treatment with either vehicle (e.g., dimethylsulfoxide) or test agent (e.g., compound of the invention) followed by an additional defined time period (e.g., 36 hrs, 72 hrs, 96 hrs, and the like). At the end of the additional defined time period, viability of the cells can be determined by any of a variety of methods known in the art, including assays employing MTS (3-(4,5-dimethylthiazol-2-yl)-5-(3-carboxymethoxyphenyl)-2-(4-sulfophenyl)-2H-tetrazolium), as described by -Cory et al., Cancer Commun., 1991, 3, 207-212. […] Replicates are typically assayed to allow determination of appropriate statistical properties as known in the art.\nCompounds of the invention with structures of Formulae Xa, XVb, and XVa were assayed for inhibition of growth of the T98G human glioblastoma cell line (Table II).\nHuman glioblastoma T98G cells (American Type Culture Collection, Manassas, Va.) were maintained as exponentially growing cultures in an RPMI 1640 medium with 10% FBS, 1% penicillin and 1% glutamine. The cells were seeded into 96-well plates and allowed to attach and grow for 48 hours. One plate of cells was used for a time zero cell number determination (N=16), and cells in other plates were treated for 72 hours or 96 hours with either DMSO (1% v/v; N=8 for each plate) or a range of concentrations, in quadruplicate, of test agents. Cell number was determined spectrophotometrically at 490 nm minus absorbance at 630 nm after exposure to 3-(4,5-dimethylthiazol-2-yl)-5-(3-carboxymethoxyphenyl)-2-(4-sulfophenyl)-2H-tetrazolium (MTS) and N-methylphenazine methylsulfate. The fifty percent growth inhibitory concentrations (GI50) of test agents were calculated from the spectrophotometrically determined growth of the control cells over the 72- or 96-hour period."}, "bovine brain tubulin": {"tested_on": "bovine brain tubulin", "experiment": "Inhibition of GTP-induced tubulin assembly (turbidimetry at 350 nm)", "assay_type": "biochemical", "conditions": "after 20 min at 30° C., 10 μM bovine brain tubulin, 0.8 M monosodium glutamate", "description": "Bovine brain tubulin was isolated to electrophoretic homogeneity from fresh brains via methodology described by Hamel and Lin, Biochemistry 23: 4173-84 (1984). Tubulin (final concentration 10 μM; 1 mg/mL) was preincubated with test agents dissolved in DMSO (4% v/v final concentration) and monosodium glutamate (0.8 M final concentration, pH 6.6) for 15 minutes at 30° C. The reaction mixture was cooled to 0° C., and GTP (0.4 mM final concentration) was added. Reaction mixtures were transferred to cuvettes held at 2.5° C. in a Beckmann DU 7400 multichannel, temperature-controlled (Peltier unit) spectrophotometer, reading absorbance (turbidity) at 350 nm in each cuvette every 15 seconds. Baselines were established and temperature was quickly raised to 30° C. (in approximately 1 minute). After 20 minutes, the temperature was returned to 2.5° C. The turbidity value after 20 minutes at 30° C. for GTP alone was assigned as 100% assembly, and for DMSO alone as 0% assembly. The IC50 was calculated by linear regression of the percent assembly values at the same time point obtained with 0.625, 1.25, 2.5, 5, 10 and 20 μM test agent. In experiments to test for disassembly of preformed tubulin polymer, the test agent was added after 7 minutes of GTP-induced assembly."}, "[2]": {"conditions": "72 h, read-out: GI50 at (72 h) in T98 glioblastoma cells"}, "[3]": {"conditions": "72 h, read-out: GI50 in T98G cell, 72 h"}, "[4]": {"conditions": "96 h, read-out: GI50 at 96 h in T98 glioblastoma cells"}, "[5]": {"conditions": "96 h, read-out: GI50 in T98G cell, 96 h"}}, "note": "Structures can show the parent of a compound that is named as a salt. Where two headings read alike, the source gives them in different places.", "data": [{"smiles": "CCC(C)[C@H](NC(=O)CN(C)C)C(=O)N(C)[C@H](C[C@H](OC(C)=O)c1nc(C(=O)N[C@@H](Cc2ccccc2)C[C@H](C)C(=O)O)cs1)C(C)C", "note": "(stereo partly drawn) [WZY-III-64A, (2S,4R)-4-(2-((6S,9R,11S)-6-sec-Butyl-9-isopropyl-2,8-dimethyl-4,7,13-trioxo-12-oxa-2,5,8-triazatetradecan-11-yl)thiazole-4-carboxamido)-2-methyl-5-phenylpentanoic acid]", "values": [{"measurement": "GI50", "setting": "[1]; 72 h", "result": "430 to 4400", "unit": "nM"}, {"measurement": "GI50", "setting": "[1]; [2]", "result": 590, "unit": "nM"}, {"measurement": "GI50", "setting": "[1]; [3]", "result": "590 ± 1000", "unit": "nM"}, {"measurement": "GI50", "setting": "[1]; 96 h", "result": "350 to 16000", "unit": "nM"}, {"measurement": "GI50", "setting": "[1]; [4]", "result": "400 ± 30", "unit": "nM"}, {"measurement": "GI50", "setting": "[1]; [5]", "result": "400 ± 30", "unit": "nM"}, {"measurement": "IC50", "setting": "bovine brain tubulin", "result": "> 5000", "unit": "nM"}]}, {"smiles": "CCC(C)[C@H](NC(=O)[C@H]1CCCCN1C)C(=O)N(C)[C@H](C[C@@H](OC(C)=O)c1nc(C(=O)N[C@@H](Cc2ccccc2)C[C@H](C)C(=O)O)cs1)C(C)C", "note": "(stereo partly shown) [WZY-III-63C, N^14-Desacetoxytubulysin H trifluoroacetic acid salt]", "values": [{"measurement": "loss in antiproliferative GI50 compared to dolastatin 10 and tubulysins A or D", "setting": "[1]", "result": "1-2 orders of magnitude"}, {"measurement": "GI50", "setting": "[1]; 72 h", "result": "430 to 4400", "unit": "nM"}, {"measurement": "GI50", "setting": "[1]; [2]", "result": 4.4, "unit": "nM"}, {"measurement": "GI50", "setting": "[1]; [3]", "result": "4.4 ± 11", "unit": "nM"}, {"measurement": "GI50", "setting": "[1]; 96 h", "result": "350 to 16000", "unit": "nM"}, {"measurement": "GI50", "setting": "[1]; [4]", "result": "1.6 ± 0.8", "unit": "nM"}, {"measurement": "GI50", "setting": "[1]; [5]", "result": "1.6 ± 0.8", "unit": "nM"}, {"measurement": "IC50", "setting": "bovine brain tubulin", "result": 2300, "unit": "nM"}]}, {"smiles": "CCC(C)[C@H](NC(=O)CN(C)C)C(=O)N(C)[C@H](C[C@@H](OC(C)=O)c1nc(C(=O)N[C@@H](Cc2ccccc2)C[C@H](C)C(=O)O)cs1)C(C)C", "note": "(stereo partly drawn) [WZY-III-69A, (2S,4R)-4-(2-((6S,9R,11R)-6-sec-Butyl-9-iso-propyl-2,8-dimethyl-4,7,13-trioxo-12-oxa-2,5,8-triazatetradecan-11-yl)thiazole-4-carboxamido)-2-methyl-5-phenylpentanoic acid]", "values": [{"measurement": "GI50", "setting": "[1]; 72 h", "result": "430 to 4400", "unit": "nM"}, {"measurement": "GI50", "setting": "[1]; [2]", "result": 430, "unit": "nM"}, {"measurement": "GI50", "setting": "[1]; [3]", "result": "430 ± 130", "unit": "nM"}, {"measurement": "GI50", "setting": "[1]; 96 h", "result": "350 to 16000", "unit": "nM"}, {"measurement": "GI50", "setting": "[1]; [4]", "result": "350 ± 40", "unit": "nM"}, {"measurement": "GI50", "setting": "[1]; [5]", "result": "350 ± 40", "unit": "nM"}, {"measurement": "IC50", "setting": "bovine brain tubulin", "result": 3100, "unit": "nM"}]}]}
